Measured values: PubChem BioAssay (NCI)
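How tested: cells in 96-well plates exposed to compound for 48 hours at five concentrations. GI50 is the concentration that inhibits growth by half. TGI denotes the concentration required for complete inhibition of growth.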

Tests used:
Test in all cases: NCI tumour cell line growth inhibition, 48 h
CAKI-1 renal = test system: CAKI-1 renal
PC-3 prostate = test system: PC-3 prostate
MCF7 breast = test system: MCF7 breast
HL-60(TB) leukemia = test system: HL-60(TB) leukemia
HOP-62 NSCLC = test system: HOP-62 NSCLC
SK-MEL-2 melanoma = test system: SK-MEL-2 melanoma
SNB-19 CNS = test system: SNB-19 CNS
SF-268 CNS = test system: SF-268 CNS
SK-MEL-5 melanoma = test system: SK-MEL-5 melanoma
CCRF-CEM leukemia = test system: CCRF-CEM leukemia

Row | Structure (SMILES) | GI50 (CAKI-1 renal) [µM] | TGI (CAKI-1 renal) [µM] | GI50 (PC-3 prostate) [µM] | TGI (PC-3 prostate) [µM] | GI50 (MCF7 breast) [µM] | TGI (MCF7 breast) [µM] | GI50 (HL-60(TB) leukemia) [µM] | TGI (HL-60(TB) leukemia) [µM] | GI50 (HOP-62 NSCLC) [µM] | TGI (HOP-62 NSCLC) [µM] | GI50 (SK-MEL-2 melanoma) [µM] | TGI (SK-MEL-2 melanoma) [µM] | GI50 (SNB-19 CNS) [µM] | TGI (SNB-19 CNS) [µM] | GI50 (SF-268 CNS) [µM] | TGI (SF-268 CNS) [µM] | GI50 (SK-MEL-5 melanoma) [µM] | TGI (SK-MEL-5 melanoma) [µM] | GI50 (CCRF-CEM leukemia) [µM] | TGI (CCRF-CEM leukemia) [µM]
1 | Oc1c(I)cc(-c2nc3ccccc3s2)cc1CN(Cc1ccccn1)Cc1ccccn1 | 0.413 | 2.47 | 0.308 | > 100 | 0.34 | 35 | 0.323 | > 100 | 0.332 | 68.3 | 0.362 | 17.8 | 0.387 | > 100 | 0.301 | 95.2 | 0.179 | 0.438 | 0.35 | > 100
2 | CC(=O)c1cc2c(c3ccsc13)-c1ccccc1CC2 | 29.4 | > 100 | 27.9 | > 100 | 21 | > 100 | 30.8 | > 100 | 36.4 | > 100 | 26.5 | 83 | > 100 | > 100 | 43.4 | > 100 | 12.7 | 35.7 | 21.7 | 62.1
3 | CC(C)(C)[Si](C)(C)OCC1C=CC(n2cnc3c(N)ncnc32)O1 (configuration not stated) |  | > 100 |  | > 100 |  | > 75.4 |  | 40.3 |  | > 100 |  | > 100 |  | > 100 |  | > 100 |  | 34.1 |  | 39.8
4 | CS(=O)(=O)CCn1c(=O)c(Oc2ccc(F)cc2F)cc2cnc(NC3CCOCC3)nc21 | > 25 | > 25 | > 25 | > 25 | > 25 | > 25 | > 25 | > 25 | > 25 | > 25 | > 25 | > 25 | > 25 | > 25 | > 25 | > 25 | > 25 | > 25 | > 25 | > 25
5 | COC(=O)OCc1ccc2c(c1)C(=O)c1c-2n(CCCBr)c(=O)c2cc([N+](=O)[O-])ccc12 | 35.5 | 75.4 | > 100 | > 100 | > 100 | > 100 | 70.2 | > 100 | 27.7 | > 100 | > 100 | > 100 | 79 | > 100 | > 100 | > 100 | > 100 | > 100 | 45.9 | > 100
6 | C[C@@H](Oc1ccc2[nH]nc(/C=C/c3cnn(CCO)c3)c2c1)c1c(Cl)cncc1Cl | 0.184 | > 100 | 1.41 | 7.4 | 0.0573 | 4.06 | 0.237 | 3.21 | 0.108 | 3.06 | 1.37 | 3.08 | 0.364 | 3.52 | 0.177 | 1.49 | 0.963 | 3.6 | 0.105 | 5
7 | COc1ccc(/C=C(/C)[N+](=O)[O-])cc1 |  | 6.07 |  | 5.04 |  | 2.51 |  | > 21.8 |  | 3.61 |  | 10.8 |  | 17.9 |  | 9.42 |  | 5.92 |  | 4.48
8 | CN1CCN(CCNc2ccc(CO)c3sc4ccccc4c(=O)c23)CC1 |  | 19.8 | 3.5 | 14.5 | 1.85 | 8.77 |  | 15.7 |  | 18.6 |  | 20.9 |  | 36.1 |  | 20.7 |  | 9.88 |  | > 48
9 | CC(O)C(O)C(O)C(/C=N\Nc1ccccc1)=N/Nc1ccccc1 (configuration not stated) |  | 11.1 |  | 49.6 |  | 24.1 |  | 45.3 |  | 30.3 |  | 21.5 |  | 29.1 |  | 24.5 |  | 28.5 |  | 52.3
10 | O=C(NNS(=O)(=O)c1ccc(F)cc1)c1cccnc1Nc1ccc(Cl)cc1Cl | 31.2 | > 100 | 14.8 | 32.1 | 31.5 | > 100 | 25.2 | 62.3 | 30.9 | 84.5 | 42.3 | > 100 | 29.2 | > 100 | 45.2 | > 100 | 25.3 | 86 | 21.1 | > 100
11 | COc1ccc(C(=O)COc2cccc(/C=C3\CSc4ccc(Cl)cc4C3=O)c2)cc1 | 12.4 | 25.1 | 3.97 | 20.4 | 1.5 | 11.3 | 2.18 | 7.21 | 19.5 | 47.3 | 11.7 | 25.1 | 6.99 | 20.1 | 14.9 | 30.3 | 3.93 | 18.5 | 1.82 | 5.41
12 | C[C@]12C3CC[C@@]4(CO)C[C@]3(CCC1[C@](C)(C(=O)O)CC[C@@H]2O)CC4=O (some centres not stated) | > 100 | > 100 | > 100 | > 100 | > 100 | > 100 | > 100 | > 100 | > 100 | > 100 | > 100 | > 100 | > 100 | > 100 | > 100 | > 100 | > 100 | > 100 | > 100 | > 100
13 | COc1ccc(-c2nnc(N3CCN(C(=O)CN4CCN(c5ccc(Cl)cc5)CC4)CC3)nc2-c2ccc(OC)cc2)cc1 | 28.5 | > 100 | 9.58 | > 100 | 5.82 | > 100 | 10.7 | 52.3 | 26.2 | 81.1 | 35.5 | > 100 | 40.1 | > 100 | > 100 | > 100 | 7.91 | > 100 | 48 | > 100
14 | NC(Cc1ccnnc1)C(=O)O (configuration not stated) |  | > 100 |  | > 100 |  | > 100 |  | > 100 |  | > 100 |  | > 100 |  | > 100 |  | > 100 |  | > 100 |  | > 100
15 | O=[N+]([O-])/C=C\c1c[nH]c2ccc(OCc3ccccc3)cc12 |  | 53.5 |  | 21.5 |  | 73.7 |  | 8.78 |  | 29.4 |  | 24 |  | 16.5 |  | 25.6 |  | 19.2 |  | > 100
16 | COc1cc(NCC2COc3c(ccc(OC)c3OC)C2=O)c([N+](=O)[O-])cc1OC (configuration not stated) |  | > 100 |  | > 100 |  | > 100 |  | > 100 |  | > 100 |  | > 100 |  | > 100 |  | > 100 |  | > 100 |  | > 100
